A value given as a limit tells only on which side of the number the result lay.

Tested on in the first data set: not given
Assay: not given
Details: not given
On to `CC(C)(CCNC(=O)[C@H]1CN(C2c3ccc(Cl)cc3CCc3cc(Br)cnc32)CCN1C(=O)NC1CCCCC1)n1ccnc1` (stereo partly drawn) [Example 1], for which the melting point was in the range of 142 to 144 °C. On the same count and under the same terms, the value for `CC(C)(CCNC(=O)[C@H]1CN([C@H]2c3ccc(Cl)cc3CCc3cc(Br)cnc32)CCN1C(=O)CC1CCN(C(N)=O)CC1)n1ccnc1` [Example 8] was 123 to 127 °C. On to `CC(C)(C)NC(=O)N1CCN([C@@H]2c3ccc(Cl)cc3CCc3cc(Br)cnc32)C[C@@H]1C(=O)NCCC(C)(C)n1ccnc1` [Example 11], for which the melting point is 157 to 159 °C. As for `CC(C)OC(=O)N1CCN([C@H]2c3ccc(Cl)cc3CCc3cc(Br)cnc32)C[C@@H]1C(=O)NCCC(C)(C)n1ccnc1` [Example 16], the melting point was 109 to 111 °C. Turning to `NC(=O)[C@H](Cc1cnc[nH]1)NC(=O)[C@H]1CN(C2c3ccc(Cl)cc3CCc3cc(Br)cnc32)CCN1C(=O)NC1CCCCC1` (stereo partly drawn) [Example 25], the melting point was 164 to 169 °C.

The subject of a further data set is COS Cell. Briefly: COS Cell IC50 (Cell-Based Assay). The settings on record: range stated for the group. The procedure:
FPT IC50 (inhibition of farnesyl protein transferase, in vitro enzyme assay) and COS Cell IC50 (Cell-Based Assay) were determined following the assay procedures described in WO 95/10516, published Apr. 20, 1995. GGPT IC50 (inhibition of geranylgeranyl protein transferase, in vitro enzyme assay), Cell Mat Assay, and anti-tumor activity (in vivo anti-tumor studies) could be determined by the assay procedures described in WO 95/10516. The disclosure of WO 95/10516 is incorporated herein by reference thereto.
For the compound `CC(C)(CCNC(=O)[C@H]1CN(C2c3ccc(Cl)cc3CCc3cc(Br)cnc32)CCN1C(=O)NC1CCCCC1)n1ccnc1` (stereo partly drawn) [Example 1], the IC50 lay within 10 to 920 nM. The same measure, in the same setting: the value for `CC(C)(CCNC(=O)[C@H]1CN([C@H]2c3ccc(Cl)cc3CCc3cc(Br)cnc32)CCN1C(=O)CC1CCN(C(N)=O)CC1)n1ccnc1` [Example 8] was 10 to 920 nM. `NC(=O)[C@H](Cc1cnc[nH]1)NC(=O)[C@H]1CN(C2c3ccc(Cl)cc3CCc3cc(Br)cnc32)CCN1C(=O)NC1CCCCC1` (stereo partly drawn) [Example 25] came in with an IC50 of 10 to 920 nM. Consider `Cn1cncc1CCCNC(=O)[C@H]1CN(C2c3ccc(Cl)cc3CCc3cc(Br)cnc32)CCN1C(=O)NC1CCCCC1` (stereo partly drawn) [Example 101], for which the IC50 is at most 35 nM. Consider `CC(C)(C)NC(=O)N1CCN(C2c3ccc(Cl)cc3CCc3cc(Br)cnc32)C[C@@H]1C(=O)NCCCn1ccnc1N` (stereo partly drawn) [Example 103], for which the IC50 is at most 35 nM.

For the compound `Cc1cn(CCNC(=O)[C@H]2CN(C3c4ccc(Cl)cc4CCc4cc(Br)cnc43)CCN2C(=O)NC2CCCCC2)cn1` (stereo partly drawn) [Example 259], the IC50 is at most 35 nM.

The next data set relates to Human tumor cells. As to the kind of experiment: Soft Agar Assay (anchorage-independent growth). The settings on record: Homo sapiens, range stated for the group unless single. It is filed as cell-based. The procedure: Anchorage-independent growth is a characteristic of tumorigenic cell lines. Human tumor cells can be suspended in growth medium containing 0.3% agarose and an indicated concentration of a farnesyl transferase inhibitor. The solution can be overlayed onto growth medium solidified with 0.6% agarose containing the same concentration of farnesyl transferase inhibitor as the top layer. After the top layer is solidified, plates can be incubated for 10-16 days at 37° C. under 5% CO2 to allow colony outgrowth. After incubation, the colonies can be stained by overlaying the agar with a solution of MTT (3-[4,5-dimethyl-thiazol-2-yl]-2,5-diphenyltetrazolium bromide, Thiazolyl blue) (1 mg/mL in PBS). Colonies can be counted and the IC50's can be determined.
`Cc1cn(CCCN(Cc2ccccc2)C(=O)[C@H]2CN(C3c4ccccc4CCc4cccnc43)CCN2C(=O)OC2CCCCC2)cn1` (single isomer, unassigned) [Example 372] showed an IC50 of 2 to 10 nM.

For the compound `Cc1cn(CCCN(Cc2ccccc2)C(=O)[C@H]2CN(C3c4ccc(Cl)cc4CCc4cc(Br)cnc43)CCN2C(=O)OC2CCCCC2)c(C)n1` (single isomer, unassigned) [Example 375], the IC50 is 2 to 10 nM. The compound `Cc1nccn1CCCN(Cc1ccccc1)C(=O)[C@H]1CN(C2c3ccc(Cl)cc3CCc3cc(Br)cnc32)CCN1C(=O)OC1CCCCC1` (single isomer, unassigned) [Example 382] displayed an IC50 of 2 to 10 nM. Regarding `Cn1cncc1CCN(CC1CC1)C(=O)[C@H]1CN([C@H]2c3ccc(Cl)cc3CCc3cc(Br)cnc32)CCN1C(=O)OC(C)(C)C` [305 (11s,2R isomer)], the IC50 lay in the range of 2 to 10 nM. Same read-out and setting: the value for `CC(C)(C)NC(=O)N1CCN([C@@H]2c3ccc(Cl)cc3CCc3cc(Br)cnc32)C[C@@H]1C(=O)NCCC(C)(C)n1ccnc1` [Example 11] was 2 to 300 nM; that for `CC(C)OC(=O)N1CCN([C@H]2c3ccc(Cl)cc3CCc3cc(Br)cnc32)C[C@@H]1C(=O)NCCC(C)(C)n1ccnc1` [Example 16] was 2 to 300 nM. On the same count and under the same terms, the value for `CC(C)(C)OC(=O)N1CCC(C2c3ccc(Cl)cc3CCc3cc(Br)cnc32)CC1C(=O)N(CCCn1ccnc1)Cc1ccccc1` (stereo not drawn) [Example 88] was 2 to 300 nM. For the compound `CC(C)(C)OC(=O)N1CCN(C2c3ccc(Cl)cc3CCc3cc(Br)cnc32)C[C@@H]1C(=O)N(CCCn1ccnc1)Cc1ccncc1` (stereo partly drawn) [Example 116], the half-inhibitory concentration (IC50) lay within 2 to 10 nM. `CC(C)(C)OC(=O)N1CCN(C2c3ccc(Cl)cc3CCc3cc(Br)cnc32)C[C@@H]1C(=O)N(CCCn1ccnc1)Cc1cccnc1` (stereo partly drawn) [Example 117]: the IC50 is 2 to 10 nM. As for `CC(C)(C)OC(=O)N1CCN([C@@H]2c3ccc(Cl)cc3CCc3cc(Br)cnc32)C[C@@H]1C(=O)N(CCCn1ccnc1)Cc1ccccc1` [Example 160], the IC50 lay in the range of 2 to 10 nM. On the same count and under the same terms, then `O=C([C@H]1CN([C@H]2c3ccc(Cl)cc3CCc3cc(Br)cnc32)CCN1C(=O)OC1CCCCC1)N(CCCn1ccnc1)Cc1ccccc1` [Example 170], with 2 to 10 nM; and `CC(C)COC(=O)N1CCN([C@@H]2c3ccc(Cl)cc3CCc3cc(Br)cnc32)C[C@@H]1C(=O)N(CCCn1ccnc1)Cc1ccccc1` [Example 184], with 2 to 10 nM.

Compound `O=C([C@H]1CN([C@H]2c3ccc(Cl)cc3CCc3cccnc32)CCN1C(=O)OC1CCCCC1)N(CCCn1ccnc1)Cc1ccccc1` [Example 186] gave an IC50 of 2 to 10 nM. For the compound `CC(C)OC(=O)N1CCN([C@@H]2c3ccc(Cl)cc3CCc3cccnc32)C[C@@H]1C(=O)N(CCCn1ccnc1)Cc1ccccc1` [Example 187], the IC50 lay in the range of 2 to 10 nM.

Take `O=C([C@H]1CN([C@@H]2c3ccc(Cl)cc3CCc3cccnc32)CCN1C(=O)OC1CCCCC1)N(CCCn1ccnc1)Cc1ccccc1` [Example 188]: the IC50 lay within 2 to 10 nM.

For `Cc1cn(CCCN(Cc2ccccc2)C(=O)[C@H]2CN([C@@H]3c4ccc(Cl)cc4CCc4cc(Br)cnc43)CCN2C(=O)OC(C)C)cn1` [Example 196], the IC50 was in the range of 2 to 10 nM.

`Cc1cn(CCCN(Cc2ccccc2)C(=O)[C@H]2CN([C@@H]3c4ccc(Cl)cc4CCc4cc(Br)cnc43)CCN2C(=O)OC2CCCCC2)cn1` [Example 197] registered an IC50 of 2 to 10 nM. Same read-out and setting: the value for `Cc1cn(CCCN(Cc2ccccc2)C(=O)[C@H]2CN([C@@H]3c4ccc(Cl)cc4CCc4cccnc43)CCN2C(=O)OC2CCCCC2)cn1` [Example 198] was 2 to 10 nM.

`Cc1cn(CCCN(Cc2ccccc2)C(=O)[C@H]2CN([C@H]3c4ccc(Cl)cc4CCc4cccnc43)CCN2C(=O)OC(C)C)cn1` [Example 200] displayed an IC50 of 2 to 10 nM. `Cc1cn(CCCN(Cc2ccccc2)C(=O)[C@H]2CN([C@@H]3c4ccc(Cl)cc4CCc4cccnc43)CCN2C(=O)OC2CCCC2)cn1` [Example 202]: the IC50 was in the range of 2 to 10 nM. With `CC(C)OC(=O)N1CCN([C@H]2c3ccc(Cl)cc3CCc3cccnc32)C[C@@H]1C(=O)N(CCCn1ccnc1)Cc1ccc(F)cc1` [Example 204], the IC50 was 2 to 10 nM. On the same count and under the same terms, the value for `CC(C)(C)OC(=O)N1CCN([C@H]2c3ccc(Cl)cc3CCc3cc(Br)cnc32)C[C@@H]1C(=O)N(CCCn1ccnc1)Cc1cccnc1` [Example 206] was 2 to 10 nM; that for `CC(C)(C)OC(=O)N1CCN([C@@H]2c3ccc(Cl)cc3CCc3cc(Br)cnc32)C[C@@H]1C(=O)N(CCCn1ccnc1)Cc1cccnc1` [Example 207] was 2 to 10 nM. Still for that read-out and setting: then `O=C([C@H]1CN([C@H]2c3ccc(Cl)cc3CCc3cccnc32)CCN1C(=O)OC1CCCCC1)N(CCCn1ccnc1CO)Cc1ccccc1` [Example 208], with 2 to 10 nM; and `CC(C)(C)OC(=O)N1CCN(C2c3ccc(Cl)cc3CCc3cc(Br)cnc32)C[C@@H]1C(=O)N(CCCn1ccnc1)Cc1ccccn1` (stereo partly drawn) [Example 217], with 2 to 10 nM.

In the case of `Cc1cn(CCCN(Cc2ccccc2)C(=O)[C@H]2CN([C@H]3c4ccc(Cl)cc4CCc4cccnc43)CCN2C(=O)OC2CCCCC2)cn1` [Example 225], the IC50 lay within 2 to 10 nM. Consider `Cc1cn(CCCN(Cc2cccc(Cl)c2)C(=O)[C@H]2CN([C@H]3c4ccc(Cl)cc4CCc4cccnc43)CCN2C(=O)OC2CCCCC2)cn1` [Example 322], for which the IC50 is 2 to 10 nM. Take `Cn1cncc1CCCN(Cc1ccccc1)C(=O)[C@H]1CN([C@H]2c3ccc(Cl)cc3CCc3cccnc32)CCN1C(=O)OC1CCCCC1` [Example 335]: the IC50 fell in the range of 2 to 10 nM.

Compound `Cc1cn(CC(O)(CNC(=O)[C@H]2CN(C3c4ccc(Cl)cc4CCc4cccnc43)CCN2C(=O)OC2CCCCC2)c2ccccc2)cn1` (stereo partly drawn) [Example 339] had an IC50 of 2 to 10 nM. Turning to `Cc1ncc(CCN(CC2CC2)C(=O)[C@H]2CN([C@H]3c4ccc(Cl)cc4CCc4cccnc43)CCN2C(=O)OC(C)(C)C)n1C` [Example 365], the IC50 lay within 2 to 10 nM.

Staying with this data set, now noted: range stated for the group unless single.
`Cc1cn(CCCN(Cc2ccccc2)C(=O)[C@H]2CN([C@H]3c4ccc(Cl)cc4CCc4cccnc43)CCN2C(=O)OC2CCCCC2)cn1` [Example 225]: the IC50 was 2 nM.

One may read the melting point as the temperature of the solid-liquid transition. A word on the IC50: it is the concentration that inhibits the measured activity by half. Low values mean inhibition by little substance, high ones a need for much substance.

The record behind these values is patent US6372747B1, “Farnesyl protein transferase inhibitors” (Schering Corporation, priority 1998, dated 2002).
